Test: Population pharmacokinetic (PPK) analysis, nonlinear mixed effects model, two-compartment model
Type: in vivo, patients and healthy adults
From the text: The memory unit 12 stores pre-constructed PK (pharmacokinetics) model information. Specifically, it stores a blood concentration calculation formula for the active ingredient sirolimus when the drug is repeatedly administered, a parameter calculation formula for calculating parameters corresponding to patient information, and pre-constructed estimated values of pharmacokinetic parameters. The blood concentration calculation formula is a formula that expresses the blood sirolimus concentration based on a two-compartment model. The parameters corresponding to patient information are parameters used in the blood concentration calculation formula, and are standard parameters for estimating the blood sirolimus concentration of patients who have the same patient information (also referred to as “patient background”). In this document, these are referred to as “standard PK parameters”.
Here, ka is the absorption rate constant (h−1), Cl/F is the clearance (L/h), V1/F is the volume of the first compartment (L), V2/F is the volume of the second compartment (L), and Q/F is the intercompartmental clearance […]. The values of these parameters are related to the patient's weight and age, the dosage form of the administered drug, and the presence or absence of concomitant use of a CYP3A4 inhibitor or CYP3A4 inducer. Di is the dose of the drug.
Each parameter in the blood concentration calculation formula is expressed as a function with the patient's weight and age, the dosage form of the drug, etc. as variables. This function corresponds to the parameter calculation formula for calculating the parameters corresponding to the patient. This parameter calculation formula is obtained in advance by population pharmacokinetic analysis using a nonlinear mixed effects model.
In formula (2), TVka is the typical value of the absorption rate constant ka, and is obtained in advance by population pharmacokinetic analysis. In this embodiment, the point estimate of TVKa is 0.235 (h−1), the relative error is 1.17%, and the 95% confidence interval is 0.229-0.240.
In formula (3), TVCl is a typical value of clearance Cl/F, and is obtained in advance by population pharmacokinetic analysis. In this embodiment, the point estimate of TVCl is 6.44 (L/h), the relative error is 6.04%, and the width of the 95% confidence interval is 5.72-7.25. WT is the patient's body weight. PMA (Post menstrual age) is the age after the last menstrual period (gestational age+postnatal age) and corresponds to the patient's age. e^ηCL represents inter-individual variation. When there is no actual measured value for the patient, ηCL is 0, and the inter-individual variation is 1. “Clinical trials assay” refers to a blood sample stored frozen, and in the case of a blood sample stored frozen, it is multiplied by 1.92. In the case of a blood sample stored refrigerated, it is multiplied by 1. “CYP3A4 fold change” is a coefficient that is determined according to the concomitant drug when there is a concomitant drug. The coefficient will be described later with reference to FIG. 9.
In formula (4), TVV1 is a typical value of the volume of the first compartment V1/F, and is obtained in advance by population pharmacokinetic analysis. In the embodiment, the point estimate of TVV1 is 176 (L), the relative error is 2.43%, and the width of the 95% confidence interval is 168-185. WT is the patient's body weight. eηV1 represents inter-individual variation. When there is no actual measured value for the patient, ηV1 is 0, and the inter-individual variation is 1. Depending on the information that can be obtained, it may be difficult to estimate the random effect of the patient on V1, and in such a case, the inter-individual variation for V1 may be set to 1 for all patients.
In formula (5), TVV2 is the typical value of the volume of the second compartment V2/F, and is determined in advance by population pharmacokinetic analysis. […]

CO[C@H]1C[C@@H]2CC[C@@H](C)[C@@](O)(O2)C(=O)C(=O)N2CCCC[C@H]2C(=O)O[C@H]([C@H](C)C[C@@H]2CC[C@@H](O)[C@H](OC)C2)CC(=O)[C@H](C)/C=C(\C)[C@@H](O)[C@@H](OC)C(=O)[C@H](C)C[C@H](C)/C=C/C=C/C=C/1C [sirolimus]
TVka, typical value of the absorption rate constant ka (point estimate) (population pharmacokinetic analysis, relative error 1.17%, 95% confidence interval 0.229-0.240): 0.235 h⁻¹ | TVV1, typical value of the volume of the first compartment V1/F (point estimate) (population pharmacokinetic analysis, relative error 2.43%, 95% confidence interval 168-185): 176 L | TVQ, typical value of the intercompartmental clearance Q/F (point estimate) (population pharmacokinetic analysis, relative error 4.07%, 95% confidence interval 31.0-36.3): 33.6 L/h | TVCl, typical value of clearance Cl/F (point estimate) (population pharmacokinetic analysis, relative error 6.04%, 95% confidence interval 5.72-7.25): 6.44 L/h | TVV2, typical value of the volume of the second compartment V2/F (point estimate) (population pharmacokinetic analysis, relative error 13%, 95% confidence interval 218-362): 281 L | factor by which TVka is multiplied (when the drug is a granule (Granule formulation), formula (2)): 4.26
